Data as given in patent publication US20260272998A1, “CHEMICALLY-MODIFIED MICROORGANISM CONTAINING A SUPEROXIDE DISMUTASE MIMIC INORGANIC COMPLEX AND USE THEREOF FOR TREATING INFLAMMATORY DISEASES” (INSTITUT NATIONAL DE RECHERCHE POUR L'AGRICULTURE, …, priority 2023, published 2026).
“Also recorded” adds a separate entry of the source.

Assays:
[1] = tested on: Lactobacillus plantarum MD007 strain
Method: The Lactobacillus plantarum MD007 strain is grown in MRS containing D-alanine (200 μg/mL) at 37° C.
An overnight culture is used to inoculate fresh medium in order to get an OD600 nm of 0.2, and cells are grown to an OD600 nm of 0.7 and are washed three times D-alanine free MRS medium. The washed bacteria are incubated in medium without D-alanine for 3 h at 37° C. before SOD mimic loading. After alanine starvation, the bacteria are washed three times with Hepes (0.1 M, pH 7.4) to reach a concentration about 10^9 bacteria per 200 μL.
After removal of the culture medium supernatant, bacteria are incubated with Hepes (0.1 M, pH 7.4) only, or with the tested compounds (Mn1 or Mn1C) at the desired concentration in the same buffer for two or twenty-four hours, at 37° C. Mn1C, Mn1 solutions are prepared extemporaneously to prevent degradation and manganese oxidation reactions. After cultures centrifugation and washing with Hepes (0.1 M, pH 7.4), the bacteria are resuspended in Hepes 0.1 M containing 16% glycerol to reach a concentration about 10^9 bacteria per 200 μL. […]
To assess bacteria viability, the overnight culture and the frozen vials are controlled by CFU (colony forming unit) test by diluting the preparation in PBS by serial 1/10 dilution and plating a known volume of the dilutions on the corresponding medium. […] Colonies are then counted by visual observation.

[2] = McCord and Fridovich assay; cited from earlier work
[3] = tested on: DBNS-induced colitis murine model; conditions: administered orally in a carbonate buffer; cited from earlier work
[4] = tested on: intestinal epithelial cells and macrophages; conditions: cited from earlier work

## Cn1ccnc1CNCCN(Cc1ccccc1O)Cc1nccn1C.[Mn+2] [Mn1]
[1]
  cell viability of loaded bacteria (CFU): does not affect cell viability
[2]
  kcat for superoxide dismutation: 7.10^6 M^−1·s^−1
[3]
  anti-inflammatory activity in DNBS-induced colitis (weight variation, macroscopic scores): exert an intracellular anti-inflammatory activity in vivo; also recorded: ameliorates DNBS-induced colitis
[4]
  antioxidant and anti-inflammatory effects on cells: antioxidant and anti-inflammatory effects
